Data set [1] concerns TA1537. The experiment in a line: Ames assay, dark mutagenicity, strain TA1537. The conditions noted are these: TA1537 −S9; 10 μg/plt. The method, then:
(§1) In this example the compounds of the present invention are tested for their dark mutagenicity using an Ames assay. The procedures used for the Salmonella mutagenicity test as described in detail by Maron and Ames were followed exactly. Maron, D. M. and B. N. Ames, Mutation Research 113:173 (1983). A brief description for each procedure is given here. The tester strains TA97a, TA98, TA100, TA102, TA1537 and TA1538 were obtained from Dr. Ames. TA97a, TA98, TA1537 and TA1538 are frameshift tester strains. TA100 and TA102 are base-substitution tester strains. Upon receipt each strain was cultured under a variety of conditions to confirm the genotypes specific to the strains.
(§2) The first tests done with the strains were to determine the range of spontaneous reversion for each of the strains. With each mutagenicity experiment the spontaneous reversion of the tester strains to histidine independence was measured and expressed as the number of spontaneous revertants per plate. This served as the background controls.
(§3) For all experiments, the pre-incubation procedure was used. In this procedure one vial of each tester strain was thawed and 20 μL of this culture was added to 6 mL of Oxoid Nutrient Broth #2. This solution was allowed to shake for 10 hours at 37° C. In the pre-incubation procedure, 0.1 mL of this overnight culture was added to each of the required number of sterile test tubes. To half of the tubes 0.5 mL of a 10% S-9 solution containing Aroclor 1254 induced rat liver extract (Molecular Toxicology Inc., Annapolis, MD), and MgCl2, KCl, glucose-6-phosphate, NADP, and sodium phosphate buffer (Sigma, St. Louis. Mo.) were added. To the other half of the tubes 0.5 mL of 0.2M sodium phospate buffer, pH 7.4, was used in place of the S-9 mixture (the -S9 samples) Finally 0.1 mL of the test solution containing either 0.0.1, 0.5, 1, 5, 10, 50, 100, 250, or 500 μg/mL of the test compound was added. The 0.7 mL mixture pre-incubated while shaking for 20 minutes at 37° C. After shaking, 2 mL of molten top agar supplemented with histidine and biotin were added to the 0.7 mL mixture and immediately poured onto a minimal glucose agar plate (volume of base agar was 20 ml.). The top agar was allowed 30 minutes to solidify and then the plates were inverted and incubated for 44 hours at 37° C. After incubation the number of revertant colonies on each plate were counted. […] (“n” represents the number of replicates performed for each data point.)
(§4) Maron and Ames (1983) describe the conflicting views with regard to the statistical treatment of data generated from the test.

Data set [2] relates to R17. The experiment in a line: R17 bacteriophage inactivation screen, varying compound concentration. As to conditions: for R17 log kill 16 uM / R17 log kill 32 uM / R17 log kill 64 uM: starting titer approx. 7.1 logs. It counts as cell-based. The method, then: The assay used to predict pathogen inactivation efficiency and to determine nucleic acid binding of the photoreactive binding compounds of the present invention was that in which a bacteriophage, R17, in solution with the desired substrate was irradiated. The ability of the phage to subsequently infect bacteria and inhibit their growth was measured. The bacteriophage was selected for its relatively accessible nucleic acid such that the culture growth inhibition would accurately reflect nucleic acid damage by the test compounds. The bacteriophage assay for nucleic acid binding to test compounds offers a safe and inexpensive procedure to identify compounds likely to display efficient pathogen inactivation. […] An aliquot (0.5 mL) was transferred to a 1.5 mL, snap-top polyethylene tube. An aliquot (0.004-0.040 mL) of the test compound stock solution prepared in water, ethanol or dimethylsulfoxide at 0.80-8.0 mM was added to the tube. Compounds were tested at concentrations between 4 μM and 320 μM. (AMT is commercially available from HRI, Inc., Concord, Calif.; 8-MOP is commercially available from Sigma, St. Louis, Mo.). The tubes were placed in a light device as described in EXAMPLE 1 and irradiated for between 1 and 10 minutes. […] To make the dilutions, a 0.100 mL aliquot of the irradiated solution of phage and test compound was added to the first dilution tube of 0.4 mL of media then 0.020 mL of this solution was added to the second tube of 0.5 mL medium (1:25). The second solution was then diluted serially (1:25) into the remaining tubes. […] After the top agar hardened, the plates were incubated at 37° C. overnight. The plaque forming units were then counted the following morning and the titer of the phage remaining after phototreatment was calculated based on the dilution factors. The following controls were run: the “phage only” in which phage was not treated with test compound and not irradiated (listed as “starting titer” in the tables below); the “UV only” in which the phage was irradiated in the absence of test compound; and the “dark” control in which the phage/test compound solution was not irradiated before it was diluted and plated.

In data set [3] the test system is TA100. The method, then: as §1, §2, §3, §4
Data set [4] relates to cell-free virus (HIV). It counts as cell-based. As to conditions: for HIV Log Kill 64 μM / HIV Log Kill 16 μM / HIV Log Kill 32 μM: 1 minute irradiation.
Procedure: Pathogen inactivation efficiency of several compounds of the present invention was evaluated by examining the ability of the compounds to inactivate cell-free virus (HIV). Inactivation of cell-free HIV was performed as follows.
As in the R17 assay, small aliquots of the compounds listed in TABLES 8 and 9, below, at the concentrations listed in the table, were added to stock HIV-1 to a total of 0.5 mL. The stock HIV (10^5-10^7 plaque forming units/mL) was in DMEM/15% FBS. […] Controls included HIV-1 stock only, HIV-1 plus UVA only, and HIV-1 plus the highest concentration of each psoralen tested, with no UVA. Post irradiation, all samples were stores frozen at −70° C. until assayed for infectivity by a microtiter plaque assay. Aliquots for measurement of residual HIV infectivity in the samples treated with a compound of the present invention were withdrawn and cultured.
Residual HIV infectivity was assayed using an MT-2 infectivity assay. […] The assay medium was 85% DMEM (with a high glucose concentration) containing 100 μg of streptomycin, 100 U of penicillin, 50 μg of gentamicin, and 1 μg of amphotericin B per mL, 15% FBS and 2 μg of Polybrene (Sigma Chemical Co., St. Louis, Mo.) per mL. Test and control samples from the inactivation procedure were diluted in 50% assay medium and 50% normal human pooled plasma. The samples were serially diluted directly in 96-well plates (Corning Glass Works, corning, N.Y.). The plates were mixed on an oscillatory shaker for 30 seconds and incubated at 37° C. in a 5% CO2 atmosphere for 1 to 18 hours. […] After an additional 1 hour of incubation at 37° C. in 5% CO2, 0.075 mL of assay medium containing 1.6% SeaPlaque agarose (FMC Bioproducts, Rockland, me.) and prewarmed to 38.5° C. was added to each well. The plates were kept at 37° C. for a few minutes until several plates had accumulated and then centrifuged in plate carriers at 600×g for 20 minutes in a centrifuge precooled to 10° C. In the centrifuge, cell monolayers formed prior to gelling of the agarose layer. The plates were incubated for 5 days at 37° C. in 5% CO2 and stained by the addition of 0.05 mL of 50 μg/mL propidium iodide (Sigma Chemical Co.) in phosphate-buffered saline (pH 7.4) to each well. After 24 to 48 hours, the red fluorescence-stained microplaques were visualized by placing the plates on an 8,000 μW/cm^2 304 nm UV light box (Fotodyne, Inc., New Berlin, Wis.). The plaques were counted at a magnification of ×20 to ×25 through a stereomicroscope. “n” represents the number of runs for which the data point is an average.
Data set [5] has as its system TA1538. The experiment in a line: Ames assay, dark mutagenicity, strain TA1538. The conditions noted are these: TA1538; in the presence of S9. The method, then: as §1, §2, §3, §4
A general note: The Ames test uses bacterial strains that need an amino acid and regain growth without it when mutated back.

Data set [6] relates to R17. The experiment in a line: R17 inactivation at constant concentration, varying doses of UV light. As to conditions: UV doses 1.0 to 3.0 J/cm^2, FIGS. 11-17. Format: cell-based, bacteriophage R17. The method, then:
Compounds of the present invention were also tested at a constant concentration for varying doses of UV light. Three sets of 1.5 mL tubes were prepared containing 0.6 mL aliquots of R17 in DMEM (prepared as described above). The compound tested was added at the desired concentration and the samples were vortexed. The samples were then irradiated at intervals of 1.0 J/cm^2, until 3.0 J/cm^2 was reached. Between each 1.0 J/cm^2 interval, 100 μL was removed from each sample and placed in the first corresponding dilution tube, then five sequential dilutions were performed for each compound tested, at all 3 irradiation doses, as described above in this example.
Then 50 μL of Hfr 3000 bacteria was added to each tube, 3 mL of top agar was added and the tube contents were vortexed. The contents of each tube was poured into its own LB plate and the plates were incubated overnight at 37° C. Plaques were counted by visual inspection the following morning.

The mark [7] stands for this setting: Table 8, HIV starting titer approximately 5 logs.
Setting [8] is: Table 9, HIV starting titer approximately 5.4 logs.

The structures appear in SMILES notation. Structures can show the parent of a compound that is named as a salt. Where two headings read alike, the source gives them in different places.

This note sets out measurements from patent US6420570B1, “Psoralen compounds” (priority 1993, dated 2002).

For the molecule `Nc1c2ccccc2nc2ccccc12` [9-Aminoacridine, reference compound], the “revertant colonies per plate, positive control” value in data set [1] is 284.

Consider `Cc1oc2c(C)c3oc(=O)cc(C)c3cc2c1CNCCN` [Compound 1, 4′-(4-amino-2-aza)butyl-4,5′,8-trimethylpsoralen dihydrochloride], for which the “logs killed in the "dark" control” value in data set [2] (Table 3, runs 1-3, at most) is not above 0.1 logs. Further, in data set [2] (Table 4), the “R17 inactivation efficiency compared with 8-MOP” value is “much R17 inactivatiotn efficiency than does 8-MOP”. Moreover, the “R17 Log Kill 8 uM” value in data set [2] (Table 5, 8 uM, 1 minute irradiation, starting titer approx. 7.2 logs) turned out to be 1.7 log. Further, in data set [2] (Table 5, 16 uM, 1 minute irradiation, starting titer approx. 7.2 logs), the “R17 Log Kill 16 uM” value worked out at 2.8 log. Besides, the “R17 Log Kill 32 uM” value in data set [2] (Table 5, 32 uM, 1 minute irradiation, starting titer approx. 7.2 logs) came out at 5.3 log. In addition, the “LOG TITER” value in data set [2] (experiment 1, 32 μM cmpd, 1′ uva, phage only 7.7) is on record as less than 1 log; in data set [2] (experiment 1, 32 μM cmpd, 10′ uva, phage only 7.7), less than 1 log; in data set [2] (experiment 1, compound only (32 μM), not irradiated, phage only 7.7), 7.6 log; in data set [2] (experiment 2, 3.2 μM cmpd, 1′ uva, phage only 7.8) it was 6.9 log; in data set [2] (experiment 2, 3.2 μM cmpd, 10′ uva, phage only 7.8), 6.1 log; in data set [2] (experiment 2, compound only (3.2 μM), not irradiated, phage only 7.8), 7.7 log. Besides, the “LOG TITER” value in data set [2] (experiment 3, 4 μM cmpd, 1′ uva, phage only 7.3) came out at 6.3 log; in data set [2] (experiment 3, 8 μM cmpd, 1′ uva, phage only 7.3), 5.6 log; in data set [2] (experiment 3, 16 μM cmpd, 1′ uva, phage only 7.3) it was 3.9 log; in data set [2] (experiment 3, compound only (16 μM), not irradiated, phage only 7.3) it was 7.3 log. In addition, in data set [3] (TA100, with and without S9), the “mutation in the TA100 strain” value is listed as “only in the absence of S9”. In addition, the “HIV Log Kill 64 μM” value in data set [4] (setting [7]) is listed as 2.1 log. Besides, in data set [5], the “dose at which the only mutagenic response (weak frameshift mutagen) was detected” value was 5 μg/plate.

On to `Cc1oc2c(C)c3oc(=O)cc(C)c3cc2c1COCCN` [Compound 2, 4′-(4-Amino-2-oxa)butyl-4,5′,8-trimiethylpsoralen Hydrochloride], for which, in data set [4] (setting [7]), the “HIV Log Kill 16 μM” value amounted to 1.4 log, the “HIV Log Kill 32 μM” value was found to be 3.8 log and the “HIV Log Kill 64 μM” value was more than 4.5 log. In addition, in data set [4] (concentrations of 64 μM of compound or higher), the “HIV inactivation activity compared with AMT” value was “significantly more active than AMT”.

For the molecule `Cc1oc2c(C)c3oc(=O)cc(C)c3cc2c1CNCCCN` [Compound 5, 4′-(5-amino-2-aza)pentyl-4,5′,8-trimethylpsoralen dihydrochloride], in data set [2] (Table 6, 16 uM, 1 minute irradiation = 1.2 J/cm^2), the “R17 log kill 16 uM” value is 5.6 log. Further, the “R17 log kill 32 uM” value in data set [2] (Table 6, 32 uM, 1 minute irradiation = 1.2 J/cm^2) is recorded as more than 6.1 log. In addition, in data set [2] (Table 6, 1 minute irradiation = 1.2 J/cm^2), the “R17 log kill 64 uM” value is given as more than 6.1 log. Further, in data set [4] (setting [7]), the “HIV Log Kill 16 μM” value came out at 0.9 log, the “HIV Log Kill 32 μM” value is given as 1.3 log and the “HIV Log Kill 64 μM” value is reported as more than 2.6 log.

Consider `Cc1oc2c(C)c3oc(=O)cc(C)c3cc2c1COCCOCCN` [Compound 7, 4′-(7-Amino-2,5-oxa)heptyl-4,5′,8-trimethylpsoralen Hydrochloride], for which the “R17 log kill 16 uM” value in data set [2] (Table 7, 16 uM, 1 minute irradiation) is on record as more than 6 log. Besides, in data set [2] (Table 7, 32 uM, 1 minute irradiation), the “R17 log kill 32 uM” value is listed as more than 6 log. Besides, the “R17 log kill 64 uM” value in data set [2] (Table 7, 1 minute irradiation) is more than 6 log. In addition, in data set [4] (setting [7]), the “HIV Log Kill 16 μM” value worked out at 0.8 log, the “HIV Log Kill 32 μM” value came out at 2.1 log and the “HIV Log Kill 64 μM” value came to 3.5 log.

Consider `Cc1oc2c(C)c3oc(=O)cc(C)c3cc2c1COCCOCCNCCCCN.Cl.Cl` [Compound 8, 4′-(12-Amino-8-aza-2,5-dioxa)dodecyl-4,5′,8-trimethylpsoralen Dihydrochloride], for which, in data set [4] (setting [7]), the “HIV Log Kill 16 μM” value turned out to be 1.1 log, the “HIV Log Kill 32 μM” value is 1.9 log and the “HIV Log Kill 64 μM” value worked out at 3.7 log.

`Cc1oc2c(C)c3oc(=O)cc(C)c3cc2c1CNCCCOCCCCOCCN` [Compound 9]: in data set [4] (setting [8]), the “HIV Log Kill 16 μM” value was determined as 0.8 log, the “HIV Log Kill 32 μM” value came to 1.4 log and the “HIV Log Kill 64 μM” value was 2.7 log.

In the case of `Cc1oc2c(C)c3oc(=O)cc(C)c3cc2c1CNCCCCCN.Cl.Cl` [Compound 10, 4′-(7-amino-2-aza)heptyl-4,5′,8-trimethylpsoralen dihydrochloride], the “R17 inactivation compared with AMT” value in data set [6] was “more efficient at inactivating R17 than was AMT”. In data set [4] (setting [8]), the “HIV Log Kill 16 μM” value is reported as 2.0 log, the “HIV Log Kill 32 μM” value is more than 3.5 log and the “HIV Log Kill 64 μM” value was more than 3.5 log.

For the molecule `Cc1oc2c(C)c3oc(=O)cc(C)c3cc2c1CNCCCNCCCN` [Compound 12], the “R17 inactivation compared with AMT” value in data set [6] is “more efficient at inactivating R17 than was AMT”. Also, in data set [4] (setting [8]), the “HIV Log Kill 16 μM” value was 0.4 log, the “HIV Log Kill 32 μM” value turned out to be 0.8 log and the “HIV Log Kill 64 μM” value stood at 1.3 log.

Turning to `Cc1oc2c(C)c3oc(=O)cc(C)c3cc2c1CNCCCNCCCCNCCCN.Cl.Cl.Cl.Cl` [Compound 15, 4′-(14-Amino-2,6,11-triaza)tetradecyl-4,5′,8-trimethylpsoralen Tetrahydrochloride], in data set [6], the “R17 inactivation compared with AMT” value is reported as “more efficient at inactivating R17 than was AMT”.

Turning to `Cc1cc(=O)oc2c(C)c3oc(CNCCCCN)c(C)c3cc12.Cl.Cl` [Compound 17, 5′-(6-Amino-2-aza)hexyl-4,4′,8-trimethylpsoralen Dihydrochloride], in data set [6], the “R17 inactivation compared with AMT” value was “more efficient at inactivating R17 than was AMT”. In data set [4] (setting [8]), the “HIV Log Kill 16 μM” value came out at 1.2 log and the “HIV Log Kill 64 μM” value was 3.4 log.

In the case of `Cc1cc(=O)oc2c(C)c3oc(COCCN)c(C)c3cc12` [Compound 18], in data set [4] (setting [8]), the “HIV Log Kill 16 μM” value worked out at 1.0 log, the “HIV Log Kill 32 μM” value was found to be 1.0 log and the “HIV Log Kill 64 μM” value came to 3.1 log.

As for `[N-]=[N+]=[N-]` [sodium azide, reference compound], in data set [3] (TA100 −S9, 1.5 μg/plate), the “revertant colonies per plate, positive control” value worked out at 965.
